In US20210059977A1, “COMBINATION THERAPIES FOR THE TREATMENT OF AMYOTROPHIC LATERAL SCLEROSIS AND RELATED DISORDERS” (The General Hospital Corporation, priority 2018, published 2021):

What was measured:
MCP-1 = test: CCL2/MCP-1 ELISA assay; format: in vivo, mice
Procedure: Spinal cord tissue was homogenized, and supernatants were derived as described in the section related to the Meso Scale Discovery cytokine assay. MCP-1 levels were measured in the supernatants generated from spinal cord tissue or in the plasma using the 96-well Mouse CCL2/JE/MCP-1 Quantikine ELISA Kit (R&D systems, #MJE00B), following the manufacturer's instructions. Briefly, samples and diluted standards were added to the plate coated with MCP-1-specific antibody. Samples were incubated in the plate for 2 hours on a shaker at room temperature, followed by washes with the wash buffer provided in the kit. Subsequently, horseradish peroxidase conjugated antibody against MCP-1 was added to each well and incubated for 2 hours at room temperature on the shaker. The plate was washed with the wash buffer and incubated with Substrate solution for 30 minutes at room temperature. Next, Stop solution was added and the signal was read on a Microplate reader (Synergy 2, Biotek Instruments). The optical density was measured at […] and was corrected with the optical density measured at 540 nm. MCP-1 levels in the samples were calculated based on the MCP-1 standard curve. Protein concentrations in the supernatants were measured by the Pierce BCA protein assay kit (Thermo Scientific). Values in the graphs represent levels of MCP-1 normalized to the corresponding protein concentrations. […]

SOD1^G93A mouse model [1] = test: Paw Grip Endurance Test (PaGE); format: in vivo, mice; conditions: TgSOD1-Cromolyn vs TgSOD1-Vehicle
Procedure: The PaGE test was performed as previously described. Briefly, mice were placed on the wire lid of a conventional housing cage that was inverted and held at ˜45 cm above an open cage bottom. […] The largest value from three individual trials was used for analysis.
(§1) 149 male and female age- and litter-matched transgenic (Tg) SOD1^G93A and wild-type (Wt) SOD1^G93A mice were used with the following breakdown: Females (19 WtSOD1-Vehicle, 17 WtSOD1-Cromolyn, 19 TgSOD1-Vehicle, and 17 TgSOD1-Cromolyn) and Males (18 WtSOD1-Vehicle, 21 WtSOD1-Cromolyn, 21 TgSOD1-Vehicle, 17 TgSOD1-Cromolyn).

[2] = system: Iba1-positive cell area in lumbar spinal cord; test: Iba1 immunohistochemical analysis (microgliosis); format: in vivo, mice; conditions: TgSOD1-Cromolyn vs TgSOD1-Vehicle
Procedure: Frozen spinal cord sections were fixed in 4% PFA/PBS for 72 hours and dehydrated with 30% sucrose in PBS. Sections were washed three times (5 minutes each) with PBS and incubated with 3% H2O2 in PBS for 15 minutes to quench endogenous peroxidases. Sections were subsequently washed three times with PBS and blocked using 5% (v/v) normal goat serum (Vector Laboratories), 0.3% Triton X-100 in PBS. Primary antibody against Iba1 (rabbit polyclonal, 1:400, Wako, #019-19741) was diluted in a buffer containing 2.5% (v/v) normal goat serum, 0.3% Triton X-100 and incubated overnight at 4° C. On the following day, samples were washed three times (10 minutes each) with PBS. The primary antibody was detected using a biotinylated secondary antibody (1:200) and VECTASTAIN Elite ABC HRP kit (Vector Laboratories), and developed with DAB (Vector Laboratories), following the provider's instructions. Sections were dehydrated in a series of graded ethanol, cleared in xylene, and cover-slipped with Cytoseal-XYL xylene-based mounting medium (Thermo Fisher Scientific). Sections were imaged using a light microscope (TE360 Eclipse; Nikon, Japan) at 10× magnification. The Iba1-positive cell area (area occupied by Iba1-positive cells divided by the total area) was quantified for each spinal cord section using ImageJ software (Voxel counter plugin, NIH, USA). Two to three sections were analyzed per mouse. […]

alpha-synuclein peptides = alpha-synuclein peptides (Homo sapiens, UniProt P37840); conditions: cited from earlier work
SOD1^G93A mouse model [3] = test: Survival; format: in vivo, mice; conditions: Mantel-Cox test
Procedure: 149 mice were used in this study. All animal care, husbandry and experimentation were performed according to the guidelines set by the Massachusetts General Hospital Subcommittee on Research Animal Care. These experiments were approved by the Massachusetts General Hospital Institutional Animal Care and Use Committee (2014N000018). All mice were given access to food and water ad libitum. Mice were assessed regularly for motor impairment and euthanized upon onset of major paralysis (neurological scoring=4, see Neurological Score below) to minimize suffering as described previously. […] The endpoint used in this study was based on previously reported criteria by ALS TDI, the loss of self-righting ability within 15 seconds (neurological score=4) or the inability to move to reach food on the cage floor. Mice that reached the humane endpoint were euthanized within 3 hours.
as §1

SOD1^G93A mouse model [4] = test: Rotarod; format: in vivo, mice; conditions: TgSOD1-Cromolyn vs TgSOD1-Vehicle; 6.3 mg/kg i.p.
Procedure: Mice were placed on a fixed speed (16 rpm) rotating rod (3.0 cm) (Rotamex, Columbus Instruments) as previously described. Mice were trained to remain on the rotarod for 180 seconds once at P40. For each experimental time point (P70, P90, P110, P130, P150), the time mice spent on the rotating rod was calculated up to a maximum of 180 seconds. Three trials were performed for each time point and the greatest value for each session was used for analysis.
as §1

SOD1^G93A mouse model [5] = test: Gait analysis (stride length and width); format: in vivo, mice; conditions: 6.3 mg/kg i.p.
Procedure: Gait Analysis Manual gait analysis was performed using a limb painting procedure similar to previous studies. Briefly, mice were first trained to traverse a horizontal corridor leading directly into their home cage by gentle nudges in the appropriate direction. On test days the bottoms of their hindlimbs were painted, by brushing with non-toxic food dye (Fisher Scientific), and the mice were allowed to walk the path to their home cage on a piece of paper. Three trials were performed at each experimental time point (P70, P90, P110, P130, P150). Stride length and width was determined by measuring the distance between the same points, on the ball mount region of the footprint, in two consecutive footprints and calculated from 2-3 hindpaw strides. Mean data from 4-6 strides across three trials was calculated.
as §1

beta-amyloid peptides = beta-amyloid peptides (Homo sapiens, UniProt P05067); conditions: cited from earlier work
beta-amyloid peptides, sequence (P05067 672-713 limits assumed): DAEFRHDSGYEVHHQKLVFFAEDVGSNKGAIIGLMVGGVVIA

For `O=C(O)c1cc(=O)c2c(OCC(O)COc3cccc4oc(C(=O)O)cc(=O)c34)cccc2o1` [cromolyn, cromolyn sodium], the “MCP-1 levels in the spinal cord” value (MCP-1; TgSOD1-Cromolyn vs TgSOD1-Vehicle) was “no effect of cromolyn treatment on MCP-1 levels”, the “MCP-1 levels in the plasma” value (MCP-1; any of the groups) was “not altered” and the PaGE performance (SOD1^G93A mouse model [1]; 6.3 mg/kg i.p., all mice, P120 and P140) was “significant improvement in PaGE performance”. The PaGE performance (SOD1^G93A mouse model [1]; female mice, P100) was “greater deficits in PaGE performance”, the PaGE performance (SOD1^G93A mouse model [1]; female mice, P140) was “significant improvement” and the PaGE performance (SOD1^G93A mouse model [1]; male mice, P120) was “significant improvement in PaGE”. For the same molecule, the “percentage of Iba1-positive cell area in the lumbar spinal cord” value [2] was “no significant change”, the “binding to alpha-synuclein peptides and polymerization” value (alpha-synuclein peptides) was “inhibiting their polymerization to higher order aggregates” and the survival (SOD1^G93A mouse model [3]; all treated mice, p=0.1096) was “did not have a significant effect on survival”. For the same molecule, the survival (SOD1^G93A mouse model [3]; female mice, p=0.01) was “significant effect of treatment on female survival”, the survival (SOD1^G93A mouse model [3]; male mice alone, p<0.8831) was “did not have a significant effect on survival” and the rotarod performance (SOD1^G93A mouse model [4]) was “no difference in rotarod performance”. The stride length (SOD1^G93A mouse model [5]; TgSOD1 mice) was “no effect on stride length”, the stride width (SOD1^G93A mouse model [5]; all groups, two-way ANOVA) was “no effect of treatment” and the “binding to beta-amyloid peptides and polymerization” value (beta-amyloid peptides) was “inhibiting their polymerization to higher order aggregates”.
